According to patent US20100305201A1 (The Trustees of the University of Pennsylvania, priority 2006, published 2010):

Tests used:
[1] = test system: Human lung-derived carcinoma cells A549; assay: Cytotoxicity assay (MTT); type: cell-based; settings: 72 h, sigmoid dose-response fit
Procedure: Cytotoxicity Assay. TAX-loaded and drug-free micelles at serial dilutions were prepared as above. For comparison, 12 mg/ml TAX in ethanol was mixed with an equal volume of Cremophor® EL followed by sonication for 30 min. The resulting Cremophor EL TAX was diluted with DPBS to obtain desired TAX concentrations. Human lung-derived carcinoma cells A549 were grown in F12 Ham media supplemented with 10% fetal bovine serum and 100 U/ml penicillin and 100 μg/ml streptomycin at 37° C., 5% CO2 to 60-70% confluence. A549 cells (50,000 cell/ml) were seeded in 96-well plates at 5,000 cells per well and cultured for 24 h to allow attachment. […] As control, […] of DPBS was added to cells not exposed to those formulations. After 37° C., 5% CO2 incubation for 72 h, the media were discarded, and 100 μl/well F12 Ham medium and 11 μl/well of 5 mg/ml MTT solution in DPBS was added. The plates were incubated at 37° C. for 3 h and the media were removed again. The intracellular metabolized product MTT formazan was retrieved by addition of 100 μl/well DMSO and incubation at room temperature for 5 min. The plates were read at 550 nm, and the cell viability was calculated as (reading of wells with cells exposed to tested formulations minus the reading of the blank wells) divided by (reading of wells with cells exposed to DPBS minus the reading of the blank wells).
Data Analysis. […]

[2] = Maximum tolerated dose (MTD) determination; settings: nude mice, dose that causes 10% weight loss within 24 h (Example 3)
Procedure: (§1) Nrc nude mice were weighed followed by a single tail vein injection of either empty OCL3 micelles and TAX-loaded micelles in different concentrations at 0.2 ml per mouse. After 24 hours, the mice were weighed again. The “maximum tolerated dose” (MTD) was determined to be, and defined as, the dose that caused the mouse body weight loss<10%.

[3] = test system: lung carcinoma A549 tumors; assay: Tumor shrinkage study, multiple injections; type: in vivo, mice
Procedure: Tumor shrinkage studies. Human lung carcinoma cell line, A549, was injected subcutaneously at […] per mouse. […] The same injections were repeated after 3, 7, 10, 14, 17 and 21 days. Tumor area (A) was monitored 24 hrs after each injection by measuring two orthogonal dimensions as A=[(L1×L2)/2] for each treatment group. The body weight of the mice was also monitored throughout the experiment.
The tumor shrinkage effect of different carriers was also examined in a multiple-injection experiment. […] TAX in DPBS solution was also used for comparison, with the MTD of 1 mg/kg injected. […] It should be noted here that the weight gaining due to tumor growth (if possible) for all groups was minimal, wherein the largest tumor area gained after 3 weeks was 0.4 cm^2 (FIG. 6A), corresponding to an approximate volume of 0.2 cm^3 (assuming the tumor was spherical in shape). This would have contributed to only 0.2 g of the total weight (assuming the density of tumor is 1 g/ml).
To evaluate the tumor inhibition effect of the different TAX delivery methods in a more quantitative way, the TAX-inhibited tumor growth vs. time plot was fit by applying an exponential model (Simeoni et al., Cancer Res. 64:1094-101 (2004)), incorporating both a tumor growth phase and a tumor shrinkage phase with the TAX addition. The modeling was performed by fit the parameters in the equation (Table 4):
Tumor Area=Σ Ae^t/growth+Be^−t/shrink Equation 7
where t is the time (day), A and tgrowth are constants of the tumor growth phase, and B and tshrink are constants of the TAX-inhibition phase.

in vivo = settings: Nrc nude, mouse
Procedure: as §1

A549 tumor xenografts = assay: Tumor study with single tail-vein injection (Example 3); settings: one week after single injection, 1 mg kg^−1 in ethanol (MTD)
Procedure: Briefly, cultured cells were injected subcutaneously onto the backs of nude mice and allowed to grow until they reached a mean size of 0.52 cm^2 (±0.02 em^2). […] Each group consisted of four mice.

[4] = exponential model of TAX-inhibited A549 tumor area vs time, injections at MTD

CC(=O)O[C@H]1C(=O)[C@@]2(C)[C@H]([C@H](OC(=O)c3ccccc3)[C@]3(O)C[C@H](OC(=O)[C@H](O)[C@@H](NC(=O)c4ccccc4)c4ccccc4)C(C)=C1C3(C)C)[C@]1(OC(C)=O)CO[C@@H]1C[C@@H]2O [TAX, Paclitaxel]
IC50 [1]: 321 nM | maximum tolerated dose (MTD) [2]: 1 mg/kg | tumor growth inhibition (in words) ([3]; A549-bearing mice, multiple injections at MTD, 22 days): modest inhibition of tumor growth | A, constant of the tumor growth phase [3, 4]: 0.014 cm^2 | B, constant of the TAX-inhibition phase [3, 4]: 0.178 cm^2 | tgrowth, constant of the tumor growth phase [3, 4]: 1.2 week | tshrink, constant of the TAX-inhibition phase [3, 4]: 8.8 week | MTD at 24 h (in vivo): 1 mg/kg | apoptosis in tumor (TUNEL-stained tumor sections) (A549 tumor xenografts): little effect
